Among the test systems are A498 renal; CAKI-1 renal; MOLT-4 leukemia; CCRF-CEM leukemia; UACC-257 melanoma; 786-0 renal; TK-10 renal; SW-620 colon; HCT-116 colon.
Holding throughout (assay): growth of human tumour cells (NCI), 48 h

Several values for one entry are separate records, joined by “and”; a condition that tells them apart may be missing. Equal values may be shown once.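 Step 1: Grow cells in 96-well plates. Step 2: Expose to compound for 48 hours at 5 concentrations. Step 3: Interpolate endpoints linearly; if unreached, use highest concentration. GI50 is the concentration that inhibits growth by half. TGI denotes the concentration required for complete inhibition of growth.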 A value given as a limit tells only on which side of the number the result lay.

Regarding `Cc1cc(N(CCC#N)CCC#N)ccc1N=Nc1ccccc1[N+](=O)[O-]`, the TGI with A498 renal, in the test with CAKI-1 renal, in the test on MOLT-4 leukemia, in the test with CCRF-CEM leukemia, in the test with UACC-257 melanoma and in the test with 786-0 renal was > 100 µM each time. Moreover, the TGI in the test on TK-10 renal and with SW-620 colon was > 100 µM throughout.
For `CC1=CCP(C(F)(F)F)P(C(F)(F)F)C1` (centres undefined), the TGI with A498 renal, with CAKI-1 renal, in the test on MOLT-4 leukemia, with CCRF-CEM leukemia, with UACC-257 melanoma and in the test on 786-0 renal was > 100 µM in each case. The TGI in the test on TK-10 renal, in the test on HCT-116 colon and in the test with SW-620 colon was > 100 µM in each case.
As to `C=CC[P@@]1(=O)O[C@H](c2ccccc2)C(C)N1C(C)C` (some centres undefined), the TGI with A498 renal, with MOLT-4 leukemia, in the test with CCRF-CEM leukemia, in the test with 786-0 renal, in the test on TK-10 renal and with SW-620 colon was > 100 µM in each case.
For the compound `COC(=O)C1Cc2c(n(C)c3ccccc23)C(c2ccccc2)N1` (centres undefined), the TGI is > 100 µM in the test on A498 renal; > 100 µM with CAKI-1 renal; > 100 µM in the test with MOLT-4 leukemia; > 100 µM in the test on CCRF-CEM leukemia; 32 µM in the test on UACC-257 melanoma; > 100 µM with 786-0 renal. Moreover, the TGI with TK-10 renal, with HCT-116 colon and in the test on SW-620 colon was > 100 µM throughout.
For `CC(C)(C)c1ccc(Oc2ccc(C#N)c(C#N)c2)c(C(C)(C)C)c1`, the TGI is > 100 µM in the test with A498 renal; > 100 µM in the test on CAKI-1 renal; 52.9 µM in the test on MOLT-4 leukemia; > 66.2 µM with CCRF-CEM leukemia; > 100 µM with UACC-257 melanoma; > 100 µM in the test with 786-0 renal. For the same compound, the TGI with TK-10 renal was > 100 µM; in the test on HCT-116 colon, > 60.1 µM; in the test with SW-620 colon, > 100 µM.
For the compound `O=C(c1ccccc1)c1ccc2cccc(O)c2n1`, the TGI in the test with CAKI-1 renal was > 100 µM; with MOLT-4 leukemia, 70.9 µM; in the test on CCRF-CEM leukemia, 51.8 µM; in the test with 786-0 renal, 51.6 µM; with TK-10 renal, > 100 µM; with HCT-116 colon it was 35.1 µM. For the same compound, the TGI with SW-620 colon was 32.4 µM.
With `COc1c2c(c(OC)c3c(=O)cc(C/C(=N/NC(=O)C[n+]4ccccc4)C(=O)Nc4cc(C)ccc4C)oc13)OCO2`, the TGI in the test with A498 renal, with CAKI-1 renal, with MOLT-4 leukemia, with CCRF-CEM leukemia, in the test on UACC-257 melanoma and with 786-0 renal was > 100 µM throughout. Besides, the TGI in the test on TK-10 renal, with HCT-116 colon and in the test with SW-620 colon was > 100 µM each time.
Regarding `O=C1C2c3[nH]c4ccccc4c3C3CCSCC3C2C(=O)N1c1ccccc1` (centres undefined), the TGI in the test with A498 renal, in the test with CAKI-1 renal, with MOLT-4 leukemia, in the test on CCRF-CEM leukemia, in the test on UACC-257 melanoma and in the test on 786-0 renal was > 100 µM in each case. Besides, the TGI in the test with TK-10 renal, in the test with HCT-116 colon and in the test on SW-620 colon was > 100 µM in each case.
Regarding `Cc1ccc(C)c(NC(=O)CC2C(=O)Nc3ccccc3S2(=O)=O)c1` (centres undefined), the TGI was > 100 µM in the test with A498 renal; > 100 µM in the test with CAKI-1 renal; > 100 µM with MOLT-4 leukemia; > 100 µM with CCRF-CEM leukemia; > 100 µM in the test with UACC-257 melanoma; 56.5 µM in the test with 786-0 renal. Further, the TGI in the test on TK-10 renal, in the test on HCT-116 colon and in the test with SW-620 colon was > 100 µM in each case.
As to `COCC1N=C(c2ccc(OC)c(OCc3ccccc3)c2OC)O[C@H]1c1ccccc1` (some centres undefined), the TGI was 79.7 µM in the test on A498 renal; 23.3 µM in the test on MOLT-4 leukemia; 60.8 µM in the test on CCRF-CEM leukemia; 96.1 µM in the test on 786-0 renal; > 100 µM in the test with TK-10 renal; 34.5 µM in the test with HCT-116 colon. In the test on SW-620 colon, the TGI is > 100 µM.
As for `N.N.NCCCCN.O=C([O-])CC(=O)[O-].O=C([O-])CC(=O)[O-].[Pt+4].[Pt+4]`, the GI50 in the test with A498 renal is > 100 µM; in the test on CAKI-1 renal it was 79 µM; in the test with MOLT-4 leukemia, 52.8 µM; in the test on CCRF-CEM leukemia, 35.6 µM; in the test on UACC-257 melanoma, > 100 µM; in the test on 786-0 renal, 57.3 µM. Besides, the GI50 in the test with TK-10 renal, in the test on HCT-116 colon and with SW-620 colon was > 100 µM in each case. Further, the TGI in the test on A498 renal, in the test on CAKI-1 renal, in the test on MOLT-4 leukemia, in the test on CCRF-CEM leukemia, in the test on UACC-257 melanoma and in the test with 786-0 renal was > 100 µM each time. Besides, the TGI with TK-10 renal, in the test on HCT-116 colon and in the test on SW-620 colon was > 100 µM in each case.
As to `N#C[C@]12CC3(CC[C@H]1CC1(C2)OCCO1)OCCO3`, the TGI in the test with A498 renal, with CAKI-1 renal, with MOLT-4 leukemia, in the test with CCRF-CEM leukemia, with UACC-257 melanoma and with 786-0 renal was > 100 µM throughout. Besides, the TGI in the test on TK-10 renal, in the test with HCT-116 colon and in the test with SW-620 colon was > 100 µM each time.
On to `Brc1nc2c3ccccc3ncn2c1Br`, for which the TGI is > 100 µM with A498 renal; 79.5 µM with CAKI-1 renal; 84.6 µM with MOLT-4 leukemia; > 100 µM in the test with CCRF-CEM leukemia; > 100 µM in the test on UACC-257 melanoma; > 100 µM with 786-0 renal. In addition, the TGI in the test on TK-10 renal, in the test with HCT-116 colon and in the test on SW-620 colon was > 100 µM throughout.
Take `Cc1c2cc[n+](C)cc2c(C)c2c1[nH]c1ccc(OC(C)C)cc12`: the TGI was > 46.8 µM with A498 renal; > 35.1 µM with CAKI-1 renal; 20.4 µM and 17.1 µM in the test with MOLT-4 leukemia; 23.9 µM and > 64.7 µM in the test on CCRF-CEM leukemia; 8.06 µM and 11.7 µM with UACC-257 melanoma; 9.1 µM and 32.5 µM in the test on 786-0 renal. Further, the TGI is > 100 µM with TK-10 renal; > 35.8 µM and 20.4 µM in the test with HCT-116 colon; 37.9 µM and 21.3 µM in the test on SW-620 colon. For the same compound, the GI50 with CCRF-CEM leukemia was 2.59 µM and 15.9 µM; in the test on 786-0 renal, 0.223 µM and 1.41 µM.

These data come from PubChem BioAssay (NCI).
